Test results published in article PMC8009417, “Selective killing of homologous recombination-deficient cancer cell lines by inhibitors of the RPA:RAD52 protein-protein interaction” (PLoS ONE, 2021).
Where “and” joins values, the source holds several entries; their conditions need not be identical. Identical values can stand only once.

Experiments:
[1] = target: RAD52 ssDNA binding domain; set-up: method as in PMID 26548611; settings: read-out: IC50, allosteric inhibitor of the RAD52 ssDNA binding domain; cited from earlier work
[2] = target: T1, RPA:RAD52 protein-protein interaction (Homo sapiens, UniProt P43351); test: FluorIA (Fluorescence-based protein-protein Interaction Assay), GFP-RAD52 binding to plate-coated RPA; settings: polynomial curve fitting; 15 dose concentrations 0.03–500 μM, triplicate; RAD52(1–303) positive control; read-out: EC50 in FluorIA (inhibition of RPA:RAD52 PPI)
T1 construct: made in house
T1 sequence (P43351 1-418): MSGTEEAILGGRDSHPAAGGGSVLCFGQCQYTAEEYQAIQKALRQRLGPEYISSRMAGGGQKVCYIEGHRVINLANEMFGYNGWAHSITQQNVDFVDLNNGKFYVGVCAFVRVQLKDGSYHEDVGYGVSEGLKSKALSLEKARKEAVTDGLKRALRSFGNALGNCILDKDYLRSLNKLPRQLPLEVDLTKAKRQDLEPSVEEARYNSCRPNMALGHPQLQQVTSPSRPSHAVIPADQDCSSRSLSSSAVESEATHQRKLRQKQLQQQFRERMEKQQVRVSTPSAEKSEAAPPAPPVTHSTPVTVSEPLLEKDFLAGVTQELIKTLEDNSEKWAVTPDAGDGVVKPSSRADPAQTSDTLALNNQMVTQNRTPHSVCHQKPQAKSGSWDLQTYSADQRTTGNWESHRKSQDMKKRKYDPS
Experimental: A newly developed fluorescence-based assay for detecting protein-protein interactions, FluorIA was used to identify SMIs of RPA:RAD52 PPI. The detailed FluorIA protocol is published elsewhere. Briefly, 384-well plates (Thermo Fisher Scientific, #460518) were coated with purified RPA. Then compounds or controls were added and incubated with freshly prepared GFP-RAD52. RAD52(1–303) without GFP-tag and buffer (including DMSO) only were used as controls. Then the relative fluorescence (RFU) was measured using a POLARstar OPTIMA plate reader (BMG LABTECH) on emptied plates at an excitation/emission (for eGFP) of 485/520 nm at 2500 gain setting.
Three chemical libraries the 355-member SelleckChem Kinase Inhibitor Library, the 1200-member Prestwick Chemical Library, and the 100,000-member ChemBridge library were used for the screening. The screening of the SelleckChem Kinase Inhibitor and the Prestwick libraries were performed at 10 and 100 μM each in duplicate. The screening of the ChemBridge library was conducted at 100 μM. […] The statistical criteria for a hit were fully described in Al-Mugotir et al.. Each hit was verified in triplicate at 10 and 100 μM.
The in vitro EC50 value of each hit was determined with FluorIA. The chemicals were serially diluted by two-fold increments from 0.030 to 500 μM and analyzed in triplicate with FluorIA. RAD52(1–303) was used as a positive control and buffer with DMSO was used as a negative control. Candidate SMIs with strong inhibition were purchased, and a 1D NMR analysis was carried out to verify their identities. The eleven candidates SMIs were purchased as follows: 5137134, 5246481, 52614577,5316833, 5373030, and 7623574 from Chembridge HIT2LEAD, 5989499 from Wuxi lab network, 5375405 from Aronis, quinacrine and mitoxantrone from Sigma Aldrich, and doxorubicin from LC labs. D-I03 was purchased from Molport. Their effectiveness in inhibiting the RPA:RAD52 PPI was confirmed after purchase with the FluorIA as described above (S1 Fig).
Supplementary file pone.0248941.s001.tif: S1 Fig Validation experiments of eleven hits with the FlourIA. Sixteen treatment concentrations were used (0.030–500 μM) increasing by two-fold increments of each molecule/drug obtained as a hit in HTS FluorIA. RAD52(1–303) without GFP-tag and buffer (including DMSO) only were used as controls. Percent inhibition was calculated as follows: [(RFUSMI—RFURAD52(1–303)) / (RFUDMSO—RFURAD52(1–303))]*100, where RFU is relative fluorescence unit. An average of triplicate measurements was used. The treatment points for quinacrine and doxorubicin beyond 125 μM were showing characteristics of aggregation and were not used. (TIF) Click here for additional data file.

[3] = test system: UWB1.289 cells corrected with wild-type BRCA1 gene (BRCA1+); test: Cell viability assay (PrestoBlue, 72 h), UWB1.289+BRCA1; type: cell-based; settings: Homo sapiens, UWB1289, estimated from the graphs
Text: (§1) BRCA1-deficient UWB1.289 cells corrected with wild-type BRCA1 gene (BRCA1+; closed triangle) and parental BRCA1-deficient UWB1.289 (BRCA1-; closed circle). Two PARPi-resistant cell lines derived from UWB1.289, UWB1.289.SYr12 (closed diamond) and UWB1.SYr13 (X), were also examined.
(§2) UWB1.289 (a gift from Dr. Lee Zou, Harvard Medical School, Boston, MA) were derived from a serous ovarian carcinoma with a germline BRCA1 mutation and a deletion of the wild-type allele. […] Two PARP-resistant cell lines, SYr12 and SYr13, were derived from the UWB1.289. The Mammary Epithelial growth media, along with SupplementMix solution for UWB1 cell lines, were obtained from PromoCell GmbH and mixed as described.
(§3) Cells were seeded 5 x 10^3 cells per well in 96-well plates in a 90 μL volume per well one day before treatment. Cells in 96-well plates were incubated with increasing concentrations of the compound or vehicle control (1% DMSO) for 72 hours. Each treatment plate contained nine concentrations of a compound in sextuplicate. Growth inhibition was determined using PrestoBlue reagent (Life Technologies, #A13261). Fluorescent measurements were taken using a Spectramax M5 plate reader (MDS). To assess cells’ replication in the absence of compounds as a control, six wells on each plate were treated with vehicle to be read in triplicate at the initial treatment day (T0) and at 72-hour read (T100).

[4] = test system: BRCA2-deficient PE01 ovarian cancer cells (BRCA2-); test: Cell viability assay (PrestoBlue, 72 h), PE01; type: cell-based; settings: Homo sapiens, estimated from the graphs
Experimental: BRCA2-deficient PE01 cell line (a gift from Dr. Toshiyasu Taniguchi, Tokai University, Japan) were derived from an ovarian cancer patient. BRCA2-proficient “revertant” cell line, C4-2 is one of eight clones derived from PE01 that has acquired resistance to both cisplatin and PARPi due to a secondary mutation that restored the BRCA2 function. PE01 and PE01 C4-2 were grown and maintained in DMEM high glucose (Hyclone) supplemented with 10% Fetal Bovine Serum (FBS, Invitrogen).
as §3

[5] = test system: BRCA1-deficient UWB1.289 ovarian cancer cells (BRCA1-); test: Cell viability assay (PrestoBlue, 72 h), UWB1.289; type: cell-based; settings: Homo sapiens, UWB1289, estimated from the graphs
Text: as §1, §2, §3

[6] = test system: BRCA2-revertant PE01 C4-2 cells (BRCA2+); test: Cell viability assay (PrestoBlue, 72 h), PE01 C4-2; settings: Homo sapiens, C4-2, 72 h, read-out: EC50, cell viability
[7] = test system: BRCA1-deficient HCC1937 breast cancer cells (empty vector, BRCA1-); test: Cell viability assay (PrestoBlue, 72 h), HCC1937 with empty vector; type: cell-based; settings: Homo sapiens, estimated from the graphs
Experimental: (§4) Fig 2 BRCA1-deficient HCC1937 breast cancer cell line survival assay. BRCA1-deficient HCC1937 cells corrected with wild-type BRCA1 gene (BRCA1+; closed triangle), and with an empty vector (BRCA1-; closed circle) were examined. For each experiment (Figs 2–4), cell lines were treated with nine concentrations of (A) quinacrine, (B) mitoxantrone, and (C) doxorubicin in 96-well culture plates at 5x10^3 cell/well density. Each treatment point was made in sextuplicate. Treated cells were incubated for 72 hours at 37°C before assessing cell viability using PrestoBlue. Data were normalized to vehicle control. The experiment was repeated three times. Error bars indicate the standard deviation.
(§5) The HCC1937 cell line (a gift from Dr. Simon Powell Memorial Sloan Kettering (MSK), New York) was derived from a mammary gland primary ductal carcinoma at the early onset of a tumor. This TNBC patient carried a germline mutation in BRCA1, resulting in carboxy-terminal truncated protein and loss of the second BRCA1 allele. BRCA1-restored and empty vector cell lines were also obtained by transfection of a vector containing a full-length human BRCA1 cDNA or an empty vector, respectively. The HCC1937 cell lines were cultured as described.
as §3

[8] = test system: PARPi-resistant UWB1.289.SYr12 cells; test: Cell viability assay (PrestoBlue, 72 h), UWB1.289.SYr12; type: cell-based; settings: Homo sapiens, estimated from the graphs
Text: as §1, §2, §3

[9] = test system: PARPi-resistant UWB1.SYr13 cells; test: Cell viability assay (PrestoBlue, 72 h), UWB1.SYr13; type: cell-based; settings: Homo sapiens, estimated from the graphs
Text: as §1, §2, §3

[10] = test system: HCC1937 cells corrected with wild-type BRCA1 gene (BRCA1+); test: Cell viability assay (PrestoBlue, 72 h), HCC1937+BRCA1; type: cell-based; settings: Homo sapiens, estimated from the graphs
Experimental: as §4, §5, §3

[11] = target: RPA, endogenous in U2OS cells (human (endogenous in U2OS)) (UniProt P15927)
Chain of RPA, endogenous in U2OS cells (human (endogenous in U2OS)) (P15927 whole entry, looked up): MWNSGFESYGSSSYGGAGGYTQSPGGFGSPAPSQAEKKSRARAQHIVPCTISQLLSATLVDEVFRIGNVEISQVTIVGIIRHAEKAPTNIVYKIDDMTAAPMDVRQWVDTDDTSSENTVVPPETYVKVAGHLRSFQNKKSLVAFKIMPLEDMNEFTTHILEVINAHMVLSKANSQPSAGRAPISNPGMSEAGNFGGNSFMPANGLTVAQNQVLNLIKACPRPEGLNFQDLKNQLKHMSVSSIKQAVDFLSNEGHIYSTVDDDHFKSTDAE

Compound	EC50 [2]	EC50 [3]	EC50 [4]	EC50 [5]	EC50 [6]	EC50 [7]	EC50 [8]	EC50 [9]	EC50 [10]	also measured
NC(Cc1cc(O)c(O)cc1O)C(=O)O (racemic) [6-hydroxy-DL-dopa]										IC50 [1]: 1100 nM
COc1cccc2c1C(=O)c1c(O)c3c(c(O)c1C2=O)C[C@@](O)(C(=O)CO)C[C@@H]3O[C@H]1C[C@H](N)[C@H](O)[C@H](C)O1 [Doxorubicin, doxorubicin]	10.1 µM	2500 nM	50 nM	300 nM	700 nM	300 nM	800 nM	2500 nM	1.5 µM	
RAD52, endogenous in U2OS cells (from UniProt P43351 1-418) (natural protein)										inhibition of single-strand annealing (SA-GFP reporter in U2OS-SA cells, FACS) by mitoxantrone, an inhibitor of the RPA:RAD52 interaction, at 4 nM [11]: 72%

Further lines, with some results ahead:

EC50 [2]	Compound	EC50 [3]	EC50 [4]	EC50 [5]	EC50 [6]	EC50 [7]	EC50 [8]	EC50 [9]	EC50 [10]	also measured
105 µM	Nc1cc(S(=O)(=O)O)cc2cc(S(=O)(=O)O)cc(O)c12 [compound 5137134]									
66 µM and 66.2 µM	Cc1cc2nc3ccc(N(C)C)cc3nc2cc1N [compound 5316833]									
97.7 µM	CCN(CC)CCCC(C)Nc1c2ccc(Cl)cc2nc2ccc(OC)cc12 (stereo not shown) [Quinacrine, quinacrine]	> 10000 nM	3800 nM	5400 nM	4500 nM	1700 nM	> 10000 nM	> 10000 nM	4.6 µM	
